How the values were obtained:
[1] = tested on: T cell responses to MOG35-55; test: T cell responses to MOG35-55 in EAE mice; format: cell-based; conditions: EAE mice given oxChol and AIQ
Experimental: Further investigations were performed to determine whether the effect of oxChol on EAE was mediated by PARP.

EAE in C57BL/6 mice = test: EAE induced with MOG35-55; format: in vivo
Experimental: EAE was induced in C57BL/6 mice with MOG35-55, and 15-ketocholestene, 15-ketocholestane and 15α-hydroxycholestene were administered at days 0, 4, 7 and 10 after EAE induction (10 μg/mice). AIQ was administered intraperitoneally (60 μg/mice) on daily basis. The course of EAE in these mice is shown as the mean EAE score+s.e.m. (MOG35-55 n=22, MOG35-55+oxChol n=24, MOG35-55+oxChol+AIQ n=18).
Spinal cords were taken on day 19 and stained with hematoxylin and eosin, luxol fast blue or silver stain to quantify the cellular infiltrate, demyelination and axonal loss, respectively. Each column represents the mean±SEM resulting from the analysis of at least 8 sections. Administration of oxChol enhanced EAE as measured clinically (FIG. 4A, P<0.0001, two-way ANOVA), and augmented inflammatory infiltrates (FIG. 4B; P<0.05, one-way ANOVA), demyelination (FIG. 4C; P<0.01, one-way ANOVA) and axonal loss (FIG. 4D; P<0.001, one-way ANOVA); these effects were inhibited by treatment with AIQ (P<0.001, one-way ANOVA).

[2] = tested on: IgG reactivity to PLP261-277; test: Inhibition of RRMS serum IgG reactivity on antigen microarray by pre-incubation with free peptide; format: binding, human; conditions: RRMS sera 1:10 dilution, excess unbound peptide, FIG. 1C
Experimental: RRMS or healthy controls (HC) serum samples were hybridized on antigen microarrays at different concentrations and the mean IgG (FIG. 1A) and IgM (FIG. 1B) reactivity to the CNS, HSP or lipid antigens spotted on the microarrays were measured. Results are presented as mean±SEM of the IgG or IgM reactivity for CNS, HSP or lipid antigens at each dilution. *P<0.05, **P<0.01 and ***P<0.001 (two-way ANOVA) when compared to HC samples tested at the same dilution.
The chips were washed with PBS, blocked for 1 h at 37° C. with 1% BSA, and incubated for 2 hours at 37° C. with a 1:10 dilution of the test serum in blocking buffer under a coverslip in a humid environment. The arrays were then washed and incubated for 45 min at 37° C. with a 1:500 dilution mixture of goat anti-human IgG Cy3-conjugated antibody and a goat anti-human IgM conjugated to Cy5, (both purchased from Jackson ImmunoResearch, West Grove, Pa. The arrays were scanned with a ScanArray 4000× scanner (GSI Luminomics, Billerica, Mass., USA) and the IgM and IgG results were recorded separately. The results were recorded as TIFF files.

| Compound | T cell responses to MOG35-55 as measured by cytokines (IFN-γ and IL-17) or proliferation [1] | inflammatory infiltrates in spinal cord (EAE in C57BL/6 mice; day 19, hematoxylin and eosin, FIG. 4B) | demyelination in spinal cord (EAE in C57BL/6 mice; day 19, luxol fast blue, FIG. 4C) | axonal loss in spinal cord (EAE in C57BL/6 mice; day 19, silver stain, FIG. 4D) | EAE measured clinically (mean EAE score) (EAE in C57BL/6 mice; oxChol 10 μg/mice days 0, 4, 7, 10, AIQ 60 μg/mice i.p. daily, FIG. 4A, P<0.0001) | reactivity to PLP261-277 on the antigen array after pre-incubation of the serum with peptide [2] |
| --- | --- | --- | --- | --- | --- | --- |
| Nc1cccc2c(=O)[nH]ccc12 [AIQ, 5-Aminoisoquinolinone] | did not affect | inhibited | inhibited | inhibited | abrogated the worsening of EAE |  |
| PLP261-277: proteolipid protein peptide 261-277, used unbound as competitor (ATYNFAVLKLMGRGTKF) |  |  |  |  |  | inhibited |

— US9267945B2, “Diagnosis of multiple sclerosis” (Yeda Research and Development Co. Ltd., priority 2008, dated 2016)
